For one test, the target named is T1, human CB1 receptor (Homo sapiens, UniProt P21554).
T1 construct: expressed in transfected cells; host or cells: SK-N-MC cells, stably transfected with pcDNA3 CB-1 (human); semi-purified membrane pellet
Nature of the test: Binding assay for CB1 agonists or inverse agonists, [3H]-CP-55,940 displacement on membranes of transfected SK-N-MC cells. As to the method: (§1) The human CB1 and CB2 receptors were stably expressed in SK-N-MC cells transfected with pcDNA3 CB-1 (human) or pcDNA3 CB-2 (human). The cells were grown in T-180 cell culture flasks under standard cell culture conditions at 37° C. in a 5% CO2 atmosphere. The cells were harvested by trysinization and homogenized in a homogenization buffer (10 mM Tris, 0.2 mM MgCl2, 5 mM KCl, with protease inhibitors aprotinin, leupeptin, pepstatin A and bacitracin) and centrifuged (2000 g). The supernatant was then centrifuged in 2M sucrose (31,300 g) to produce a semi-purified membrane pellet. The pellet was resuspended in homogenization and stored at −80° C.
(§2) On the day of the assay, the pellet was thawed on ice and diluted in assay buffer (50 mM Tris-HCl, 5 mM MgCl2, 2.5 mM EDTA, 0.5 mg/mL fatty acid free bovine serum albumin, pH 7.5). […] The plate was covered and incubated for 90 minutes at 30° C. The contents were then aspirated onto a Packard Unifilter GF/C filter bottom plate prewet with 0.5% polyethyleneimine. The wells of the polypropylene plate were rinsed and aspirated seven times with a 0.9% saline-0.5% Tween 20 solution. The Unifilter plate was dried, a scintillation cocktail was added to each well and the counts representing binding were quantitated in a TopCount scintillation counter.
(§3) For compounds tested, an IC50 binding value was obtained from percent inhibition studies in which various test concentrations were used. The binding value was calculated by linear regression. An average value is shown for those compounds where two or more IC50 values were obtained.
(§4) An average value is shown for those compounds where two or more percent inhibition values were obtained.

For the next test, the target named is T2, human CB2 receptor (Homo sapiens, UniProt P34972).
T2 construct: expressed in transfected cells; host or cells: SK-N-MC cells, stably transfected with pcDNA3 CB-2 (human); semi-purified membrane pellet
Nature of the test: Binding assay for CB2 agonists or inverse agonists, [3H]-CP-55,940 displacement on membranes of transfected SK-N-MC cells. The note with it: for inhibition at 0.2 µM: read-out: Cannabinoid CB2 Receptor Binding percent inhibition. The protocol:
as §1, §2, §3, §4

T1 sequence (P21554 whole entry): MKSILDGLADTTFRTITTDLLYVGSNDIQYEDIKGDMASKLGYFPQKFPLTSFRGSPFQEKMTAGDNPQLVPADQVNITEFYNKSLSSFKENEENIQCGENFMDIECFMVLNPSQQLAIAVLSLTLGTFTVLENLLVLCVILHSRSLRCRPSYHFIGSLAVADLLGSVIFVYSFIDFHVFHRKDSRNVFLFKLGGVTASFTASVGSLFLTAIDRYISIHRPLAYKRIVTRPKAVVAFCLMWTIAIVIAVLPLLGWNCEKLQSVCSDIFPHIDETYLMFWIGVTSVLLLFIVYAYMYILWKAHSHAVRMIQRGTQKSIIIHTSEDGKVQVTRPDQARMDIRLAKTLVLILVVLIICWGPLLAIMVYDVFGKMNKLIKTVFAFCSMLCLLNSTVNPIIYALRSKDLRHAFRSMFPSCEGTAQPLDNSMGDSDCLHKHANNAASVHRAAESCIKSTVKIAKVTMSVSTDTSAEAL
T2 sequence (P34972 whole entry): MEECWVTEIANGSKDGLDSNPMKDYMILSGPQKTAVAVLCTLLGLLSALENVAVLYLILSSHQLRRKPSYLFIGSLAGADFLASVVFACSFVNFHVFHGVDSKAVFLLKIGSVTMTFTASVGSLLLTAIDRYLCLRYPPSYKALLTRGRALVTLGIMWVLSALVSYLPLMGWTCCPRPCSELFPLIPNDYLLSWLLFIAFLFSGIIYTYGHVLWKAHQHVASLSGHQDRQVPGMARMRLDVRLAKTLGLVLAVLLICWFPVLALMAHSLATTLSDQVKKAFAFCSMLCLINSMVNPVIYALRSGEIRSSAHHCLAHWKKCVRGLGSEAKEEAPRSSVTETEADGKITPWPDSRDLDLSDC

In the case of `Cc1ccc(-c2c3c(nn2Cc2ccccc2)C(C(=O)NC(C)C24CC5CC(CC(C5)C2)C4)CCC3)cc1` (centres unmarked) [Cpd 7, 2-benzyl-3-p-tolyl-4,5,6,7-tetrahydro-2H-indazole-7-carboxylic acid (1-adamantan-1-yl-ethyl)-amide], the 50% inhibitory concentration (IC50) (in general, the concentration at which inhibition is half-maximal) stood at 370 nM on human CB1 receptor and 800 nM at human CB2 receptor.

As to `O=C(N[C@H](CO)c1ccccc1)[C@@H]1CCCc2c1nn(-c1ccc(Cl)cc1Cl)c2-c1ccc(Br)s1` [Cpd 57, (7R)-3-(5-bromo-thiophen-2-yl)-2-(2,4-dichloro-phenyl)-4,5,6,7-tetrahydro-2H-indazole-7-carboxylic acid [(1S)-2-hydroxy-1-phenyl-ethyl]-amide], the IC50 at human CB1 receptor and on human CB2 receptor was 300 nM in each case.

As to `C[C@@H](NC(=O)[C@H]1CCCc2c1nn(-c1ccc(Cl)cc1Cl)c2-c1ccc(Br)s1)c1ccccc1` [Cpd 52, (7S)-3-(5-bromo-thiophen-2-yl)-2-(2,4-dichloro-phenyl)-4,5,6,7-tetrahydro-2H-indazole-7-carboxylic acid [(1R)-1-phenyl-ethyl]-amide], the inhibition – broadly, the share of the control response that was lost under treatment – at 0.2 µM on human CB1 receptor (read-out: Cannabinoid CB1 Receptor Binding percent inhibition) was found to be 44%; on human CB2 receptor, 20%.

At human CB1 receptor, `C[C@@H](NC(=O)C1CCCc2c1nn(-c1ccc(Cl)cc1Cl)c2-c1ccc(Cl)s1)C1CCCCC1` (stereo partly drawn) [Cpd 47, 3-(5-chloro-thiophen-2-yl)-2-(2,4-dichloro-phenyl)-4,5,6,7-tetrahydro-2H-indazole-7-carboxylic acid [(1R)-1-cyclohexyl-ethyl]-amide] had a concentration for half-maximal inhibition (IC50) of 4 nM. Further, the inhibition at 0.2 µM at human CB2 receptor amounted to 5%.

For the origin of these results see patent US7795294B2, “Tetrahydro-2H-indazole pyrazole cannabinoid modulators” (Janssen Pharmaceutica N.V., priority 2006, dated 2010).
